Measured values published in patent EP0777471B1, “INHIBITION OF LEUKOTRIENE BIOSYNTHESIS WITH UREA DERIVATIVES” (MINNESOTA MINING AND MANUFACTURING COMPANY, priority 1994, dated 1996).
Several values for one entry are separate records, joined by “and”; a condition that tells them apart may be missing. Equal values may be shown once. Read-outs that look alike come from different tables or passages of the source.

Key:
[1] = system: production of Leukotriene B4 (LTB4); test: Dog ex vivo Leukotriene B4 inhibition (oral dosing, blood challenged with calcium ionophore); type: in vivo, beagle dogs; conditions: each entry one dog, negative = stimulation of LTB4 production; for % Inhibition 1 hour / % Inhibition 2 hour / % Inhibition 4 hour / % Inhibition 6 hour: 5 mg/Kg; for % Inhibition 4 hour: 4 hour post dose; for % Inhibition 6 hour: 6 hour post dose; for inhibition at 5 mg/kg: Canis lupus familiaris, po
Protocol: The test method described below measures the ability of a compound when administered orally to dogs to inhibit the production of Leukotriene B4 (LTB4) in their blood which is drawn and challenged at selected time points.
The test is conducted in beagle dogs (male and female; about 10 Kg). Prior to starting, the neck area of the beagle is shaved to allow easy access to the jugular vein. A 3-4 mL sample of blood is drawn from the jugular vein into a heparinized vacutainer. The dog is then dosed using a tube long enough to reach its stomach. The compound is dissolved in PEG 400 at a concentration such that the appropriate dose can be administered in approximately 5 mL. Immediately after the compound is given, a flush using 5 mL of vehicle is given to rinse the dosing tube. At selected time points following the dose, a 3-4 mL sample of blood is drawn.
The blood samples that have been drawn are challenged as soon as possible. A 0.5 mL portion of blood is aliquoted into 3 tubes (1 mL microtiter tubes). A 1 µL portion of 25 mM calcium ionophore in dimethyl sulfoxide is added to 2 of the tubes. A 1 µL portion of dimethyl sulfoxide is added to the third tube. The tubes are lightly mixed then placed in a 37°C water bath for 30 minutes. The tubes are centrifuged at 11,000 rpm for 3 minutes and the plasma supernatant is transferred to clean tubes. A 50 µL portion of this plasma is added to a I mL microtiter tube containing 200 µL of methanol. The tubes are placed in the freezer at -20°C for at least 1 hour then centrifuged at 2000 rpm for 10 minutes. A 10 µL portion of the methanol supematant is dried under vacuum at ambient temperature and then reconstituted in LTB4 buffer. The amount of LTB4 in the sample is determined by radioimmunoassay performed according to the manufacturer's (Advanced Magnetics; Cambridge, MA) instructions. Percent inhibition values are obtained by comparing the level of LTB4 in the post-dose sample to the level in the pre-dose sample according to the equation below. % Inhibition =((LTB4 predose) - (LTB4 postdose))/((LTB4 predose))X 100 [formula]
A number of the compounds that are useful in the practice of the method of the invention were tested. The results are shown in Table 15 below where each entry represents the results from one dog. A negative number indicates stimulation of LTB4 production. All compounds were tested at a dose of 5 mg/Kg.

[2] = system: production of Leukotriene C4 in mouse peritoneal macrophages; test: In vitro mouse peritoneal macrophage Leukotriene C4 inhibition (zymosan-stimulated, LTC4 radioimmunoassay); type: cell-based; conditions: Zymosan 50 µg/mL
Protocol: The test method described below measures the ability of compounds to inhibit the production of Leukotriene C4 in mouse peritoneal macrophages.
Mice (female, CD-1, weighing 25 g) are euthanized by exposure to carbon dioxide. The peritoneal cavity is exposed by peeling back the abdominal skin. A 5 mL portion of media (M199 containing 1% fetal bovine serum, 100 units/mL of penicillin, 100 µg/mL of streptomycin, 20 units/mL of heparin and no glutamine) is injected into the exposed peritoneal cavity of each mouse. The lavage fluid is removed and pooled to yield approximately1 X 10^6 macrophages/mL. A 2 mL portion of lavage fluid is added to each well of a 24 well sterile multidish and the macrophages are allowed to adhere to the plate for 2 hours at 37°C in a 5% carbon dioxide atmosphere. The media is removed and each well is washed with 2 mL of phosphate buffered saline (PBS). A 1 mL portion of media, without heparin, but containing 5 µCi/mL of 3H-myoinositol is added to each well and the plates are incubated overnight at 37°C in a 5% carbon dioxide atmosphere. The media is removed and the cells are washed twice with 2 mL portions of PBS. A 1 mL portion of Puck's saline formulation A containing 1 mM calcium chloride, 1 mM magnesium chloride and 10 mM lithium chloride is added to each well. (The Puck's formulation is made first as a 10X solution which contains 4 g of potassium chloride, 80 g of sodium chloride and 10 g of glucose per liter. The Puck's saline formulation A is made using 10 mL of the 10X Puck's formulation, 0.47 mL of 7.5% sodium bicarbonate and 2 mL of 1M N-2-hydroxyethylpiperazine-N'-2-ethanesulfonic acid per 100 mL.)
Compounds are dissolved in dimethyl sulfoxide. Compounds are tested at concentrations of 10, 1 and 0.1 µM. Each concentration is tested in duplicate.
A 1 µL portion of compound solution or vehicle (DMSO) is added to each well and the plates are incubated for 15 minutes at 37°C in a 5% carbon dioxide atmosphere. Zymosan is then added to provide a final concentration of 50 µg/mL in each well and the plate is incubated for 1 to 2 hours at 37°C in a 5% carbon dioxide atmosphere.
Following incubation 200 µL portions of media are transferred to 12 X 75 mm tubes. The tubes are either assayed immediately or stored at -20°C until they can be assayed.
The media is assayed for the presence of Leukotriene C4 by radioimmunoassay which is performed according to the manufacturer's (Advanced Magnetics; Cambridge, MA) instructions.

[3] = system: production of Leukotriene B4; test: Rat ex vivo Leukotriene B4 inhibition (oral dosing, blood challenged with A23187); type: in vivo, Rats; conditions: two hours post dose
Protocol: The test method described below measures the ability of a compound when administered orally to rats to inhibit the production of Leukotriene B4 in their blood which is drawn and challenged.
Rats (CD, male, non-fasted, 250 g) are lightly anesthetized with carbon dioxide and an approximately 0.75 mL sample of whole blood is obtained via cardiac puncture. The sample is dispensed into 12 X 75 mm polypropylene tubes containing 8-10 µL of 10,000 units/mL heparin, mixed and then maintained on ice. The rats are allowed to recover approximately one hour then dosed orally with compound dissolved in PEG 400 at a 5 mL/Kg volume. Five (5) rats are utilized per group. Two (2) hours post dose the rats are again anesthetized with carbon dioxide and the blood sampled again via cardiac puncture.
Duplicate 200 µL portions of blood are added to 1.0 mL polypropylene tubes. A 10 µL portion of 1mM A23187 Calcium Ionophore in dimethyl sulfoxide/Tris buffer is added to each tube. The tubes are gently vortexed then incubated in a 37°C water bath for 30 minutes. The tubes are then centrifuged at 4000 rpm for 10 minutes. 50 µL portions of plasma are transferred to 1.0 mL tubes containing 200 µL of methanol. The tubes are vortexed then placed in the freezer overnight.
The tubes are removed from the freezer then centrifuged at 4000 rpm for 10 minutes. […] portions of the methanol/plasma supernatant and 10 µL methanol dilutions of LTB4 standard curve are transferred to 96 well v-bottom microtiter plates. The plates are vacuum dried at 40°C. A 40 µL portion of LTB4 radioimmunoassay buffer is added to each well. The plate is bath sonicated for 5 minutes then assayed according to the manufacturer's (Advanced Magnetics; Cambridge, MA) instructions. Percent inhibition values are obtained by comparing the level of LTB4 in the post-dose samples to the level in the pre-dose samples according to the equation below. % Inhibition =((LTB4 pre-dose) - (LTB4 post-dose))/((LTB4 pre-dose))X 100 [formula]

[4] = 1 h, 1 hour post dose, read-out: % Inhibition 1 hour
[5] = 2 h, 2 hour post dose, read-out: % Inhibition 2 hour

Compound: CC(C)N(O)C(=O)Nc1cccc(S(C)(=O)=O)c1 [Compound 60, 1-Hydroxy-1-(1-methylethyl)-3-[3-(methylsulfonyl)phenyl]urea]
- % Inhibition 1 hour ([1]; 1 hour post dose): 97%
- % Inhibition 2 hour ([1]; 2 hour post dose): 52%
- % Inhibition 4 hour [1]: -79% and 49%
- % Inhibition 6 hour [1]: -95% and 76%
- inhibition at 5 mg/kg [1, 4]: 100%

Compound: CCCC(C)N(O)C(=O)Nc1ccccc1 (centres unmarked) [Compound 68, 1-Hydroxy-1-(1-methylbutyl)-3-phenylurea]
- IC50 [2]: < 1 µM

Compound: CCC(CC)N(O)C(=O)Nc1ccc(C(=O)c2ccccc2)cc1 [Compound 79, 1-Hydroxy-1-(1-ethylpropyl)-3-(4-benzoylphenyl)urea]
- IC50 [2]: < 1 µM

Compound: CCC(CC)N(O)C(=O)Nc1ccc(-c2ccccc2)cc1 [Compound 83, 1-Hydroxy-1-(1-ethylpropyl)-3-(biphenyl-4-yl)urea]
- IC50 [2]: < 1 µM

Compound: CCC(CC)N(O)C(=O)Nc1ccc(OCCCc2ccccc2)cc1 [Compound 82, 1-Hydroxy-1-(1-ethylpropyl)-3-[4-(3-phenylpropyloxy)phenyl]urea]
- IC50 [2]: < 1 µM

Compound: CCOCCN(O)C(=O)Nc1ccccc1 [Compound 45, 1-(2-ethoxyethyl)-1-hydroxy-3-phenylurea]
- %I ([3]; 50 mg/Kg): 6%

Compound: CCC(CC)N(O)C(=O)Nc1ccc(OCc2ccccc2)cc1 [Compound 80, 1-Hydroxy-1-(1-ethylpropyl)-3-(4-benzyloxyphenyl)urea]
- IC50 [2]: < 1 µM

Compound: O=C(Nc1ccccc1)N(O)C1CCCC1 [Compound 46, 1-cyclopentyl-1-hydroxy-3-phenylurea]
- %I ([3]; 50 mg/Kg): 17%
- % Inhibition 1 hour ([1]; 1 hour post dose): 77%
- % Inhibition 2 hour ([1]; 2 hour post dose): 58%
- % Inhibition 4 hour [1]: 11% and 2%
- % Inhibition 6 hour [1]: -23% and 46%
- inhibition at 5 mg/kg [1, 4]: 80%
- inhibition at 5 mg/kg [1, 5]: 64%

Compound: CC(C)(C)CCN(O)C(=O)Nc1ccccc1 [Compound 48, 1-(3,3-dimethylbutyl)-1-hydroxy-3-phenylurea]
- %I ([3]; 50 mg/Kg): 2%

Compound: CCCCC(CC)CN(O)C(=O)Nc1ccccc1 (centres unmarked) [Compound 47, 1-(2-ethylhexyl)-1-hydroxy-3-phenylurea]
- %I ([3]; 50 mg/Kg): 16%

Compound: CCCCc1ccc(NC(=O)N(C)O)cc1 [Compound 12, 3-(4-butylphenyl)-1-hydroxy-1-methylurea]
- %I ([3]; 50 mg/Kg): 42%

Compound: CN(O)C(=O)Nc1ccc(Oc2ccccc2)cc1 [Compound 14, 1-hydroxy-1-methyl-3-(4-phenoxyphenyl)urea]
- IC50 [2]: < 1 µM

Compound: CCC(CC)N(O)C(=O)Nc1ccc(OCC2CCCCC2)cc1 [Compound 81, 1-Hydroxy-1-(1-ethylpropyl)-3-[4-(cyclohexylmethoxy)phenyl]urea]
- IC50 [2]: < 1 µM

Compound: COc1ccccc1NC(=O)N(O)C(C)C [Compound 29, 1-hydroxy-3-(2-methoxyphenyl)-1-(1-methylethyl)urea]
- %I ([3]; 50 mg/Kg): 61%

Compound: CCCCc1ccc(NC(=O)N(O)C(C)C)cc1 [Compound 27, 3-(4-butylphenyl)-1-hydroxy-1-(1-methylethyl)urea]
- %I ([3]; 10 mg/Kg): 23%
- %I ([3]; 25 mg/Kg): 5%
- %I ([3]; 50 mg/Kg): 53% and 75%

Compound: CCC(CC)N(O)C(=O)Nc1ccccc1 [Compound 42, 1-(1-Ethylpropyl)-1-hydroxy-3-phenylurea]
- %I ([3]; 50 mg/Kg): 4%
- % Inhibition 1 hour ([1]; 1 hour post dose): 98% and 100%
- % Inhibition 2 hour ([1]; 2 hour post dose): 100%
- % Inhibition 4 hour [1]: 97% and 100% and -91%
- % Inhibition 6 hour [1]: 78% and 85% and 91% and -150%
- inhibition at 5 mg/kg [1, 4]: 99%
- inhibition at 5 mg/kg [1, 5]: 99%

Compound: CCC(CC)N(O)C(=O)Nc1ccc(Br)cc1 [Compound 41, 3-(4-Bromophenyl)-1-(1-ethylpropyl)-1-hydroxyurea]
- %I ([3]; 50 mg/Kg): 14%

Compound: CN(O)C(=O)Nc1ccc(S(C)(=O)=O)cc1 [Compound 65, 1-Hydroxy-1-methyl-3-[4-(methylsulfonyl)phenyl]urea]
- %I ([3]; 50 mg/Kg): 93%

Compound: CN(O)C(=O)Nc1ccc([S+](C)[O-])cc1 (centres unmarked) [Compound 64, 1-Hydroxy-1-methyl-3-[4-(methylsulfinyl)phenyl]urea]
- %I ([3]; 50 mg/Kg): 88%

Compound: CC(C)N(O)C(=O)Nc1cccc([S+](C)[O-])c1 (centres unmarked) [Compound 61, 1-Hydroxy-1-(1-methylethyl)-3-[3-(methylsulfinyl)phenyl]urea]
- % Inhibition 2 hour ([1]; 2 hour post dose): 99%
- % Inhibition 4 hour [1]: 29% and -2%
- % Inhibition 6 hour [1]: -32% and 22%
- inhibition at 5 mg/kg [1, 4]: 100%
- inhibition at 5 mg/kg [1, 5]: 100%

Compound: CCC(CC)N(O)C(=O)Nc1cc(C(F)(F)F)cc(C(F)(F)F)c1 [Compound 73, 1-Hydroxy-1-(1-ethylpropyl)-3-(3,5-bis(trifluoromethyl)phenyl)urea]
- IC50 [2]: < 1 µM

Compound: CCC(CC)N(O)C(=O)Nc1ccc(Oc2ccccc2)cc1 [Compound 72, 1-Hydroxy-1-(1-ethylpropyl)-3-(4-phenoxyphenyl)urea]
- IC50 [2]: < 1 µM

Compound: COc1ccc(OC)c(NC(=O)N(O)C(C)C)c1 [Compound 28, 3-(2,5-dimethoxyphenyl)-1-hydroxy-1-(1-methylethyl)urea]
- %I ([3]; 50 mg/Kg): 29%

Compound: CCCCCN(O)C(=O)Nc1ccc(CCCC)cc1 [Compound 57, 3-(4-Butylphenyl)-1-hydroxy-1-pentylurea]
- %I ([3]; 50 mg/Kg): 35%

Compound: COc1cc(NC(=O)N(O)C(C)C)cc(OC)c1OC [Compound 66, 1-Hydroxy-1-(1-methylethyl)-3-(3,4,5-trimethoxyphenyl)urea]
- %I ([3]; 50 mg/Kg): 61%
